Laboratory results taken from publication PMC11404609, “Gut microbiota-mediated C-sulfonate metabolism impairs the bioavailability and anti-cholestatic efficacy of andrographolide” (Gut Microbes, 2024).
Entries after “also recorded” stand apart in the source; their conditions may differ.

Key:
[1] = tested on: ANIT-induced cholestatic liver injury; experiment: Anti-cholestatic effect in ANIT-induced cholestatic liver injury (plasma ALT, AST, TBA, TBIL, liver H&E); format: in vivo, mice; details: for anti-cholestatic effect: AP 200 mg/kg
Procedure: To investigate the impact of gut microbiota on the anti-cholestatic effect of AP, Control and ABX mice were divided into five groups, respectively: Vehicle, AP (200 mg/kg), ANIT (50 mg/kg), ANIT+AP (200 mg/kg), and ANIT+S-AMe (100 mg/kg).
Similarly, to investigate the impact of C-sulfonate metabolism on the anti-cholestatic effect of AP, mice were randomly divided into two groups: p.o. group (oral administration) and i.p. group (intraperitoneal injection). The p.o. group was further divided into six subgroups: Vehicle, AP (400 mg/kg), ANIT (50 mg/kg), ANIT+AP (100 mg/kg), ANIT+AP (200 mg/kg), ANIT+AP (400 mg/kg). While the i.p. group was divided into five subgroups: Vehicle, AP (200 mg/kg), ANIT (50 mg/kg), ANIT+AP (100 mg/kg), ANIT+AP (200 mg/kg).
Additionally, to investigate the effect of APS reductase inhibitor on the anti-cholestatic effect of AP, mice were randomly divided into Control and Inhibitor groups, each further divided into five subgroups: Vehicle, AP (200 mg/kg), ANIT (50 mg/kg), ANIT+AP (200 mg/kg), and ANIT+S-AMe (100 mg/kg). The mice received APS reductase inhibitor bromocriptine mesylate by oral gavage (20 mg/kg, p.o.) 2 weeks before AP treatment and continued until the end of the experiment. Furthermore, to investigate the important role of FXR in the anti-cholestatic effect of AP, WT and Fxr^-/- mice were, respectively, divided into the following groups: Vehicle, ANIT (50 mg/kg), and ANIT+AP (200 mg/kg).
In pharmacodynamic experiments, mice were administered AP at various dosages through different routes daily for a duration of 2 weeks. Additionally, S-AMe was administered at a dosage of 100 mg/kg via intraperitoneal injection (i.p.) daily for 2 weeks. A single dose of ANIT (50 mg/kg, p.o.) was administered 48 h before euthanizing the mice. At the conclusion of each experiment, the mice were euthanized, and blood samples were collected for biochemical analysis and tissue samples for histological examination and UPLC-MS/MS analysis.
Biochemical indicators of cholestatic liver injury, including alanine aminotransferase (ALT), aspartate aminotransferase (AST), total bile acid (TBA), and total bilirubin (TBIL), were assessed using assay kits obtained from Nanjing JianCheng Bioengineering Institute (Nanjing, China). The experimental procedures were conducted in accordance with the protocols provided by the manufacturer. Fresh liver tissues were fixed in 10% formalin, and prepared as 4-μm paraffin sections. These sections were stained with hematoxylin and eosin for examination of liver histopathology. The stained tissue sections were then observed and captured under an optical microscope for further analysis. Liver histological changes were quantified using a slightly modified scoring system published previously.[45] The scoring system comprised four histological features that were evaluated semi-quantitatively: necrosis and fibrosis (0–4), steatosis (0–3), lobular inflammation (0–2), and hepatocellular ballooning (0–2). The liver necrosis and fibrosis areas were quantified by area fraction analysis (Image J software, V1.8.0, National Institutes of Health, USA).[46]

gut microbiota = experiment: Shotgun metagenomic sequencing of cecum samples after AP treatment; format: in vivo; details: mice cecum, AP 400 mg/kg, oral, 14 d
Procedure: Shotgun metagenomic sequencing was performed using cecum samples from mice after AP treatment (400 mg/kg, oral, 14 d). DNA was extracted by a PF Mag-Bind DNA Kit (Omega Bio-tek, USA) and qualified by 1% Agarose gel electrophoresis. Extracted DNA was fragmented by Covaris M220 (Gene Company Limited, China) and screened at approximately 400 bp fragments for paired-end library construction. NEXTFLEX® Rapid DNA-Seq (Bioo Scientific, USA) was used to build paired-end library construction. The Illumina NovaSeq 6000 (Illumina, USA) sequencing platform was used for metagenomic sequencing. Fastp was used to perform quality cropping on the adapter sequences of the 3’ and 5’ ends of reads, preserving high-quality paired-end reads and single-end reads. BWA (version 0.7.17) was used to construct the reads with the host DNA sequence and remove contaminated reads with high alignment similarity. MEGAHIT (version 1.1.2) was used to splice and assemble the optimized sequence. SOAP aligner (version soap2.21release) was used to compare the high-quality reads of each sample with the non-redundant gene set (95% identity) and calculate the abundance information of genes in the corresponding samples. DIAMOND (version 2.0.11) was used to annotate species taxonomy, and KEGG function. Data was deposited into the NCBI Sequence Read Archive (SRA) database.

C=C1CC[C@@H]2[C@](C)(CO)[C@H](O)CC[C@@]2(C)[C@@H]1C/C=C1/C(=O)OC[C@H]1O [AP, Andrographolide]
effect on ANIT-induced elevation of plasma biochemical indicators, liver cell necrosis, inflammatory cell infiltration ([1]; ABX mice (intestinal flora depleted), AP 200 mg/kg p.o., 2 weeks): markedly ameliorated | protective effect against ANIT-induced liver injury ([1]; Control mice with intact intestinal flora, AP 200 mg/kg p.o., 2 weeks): weak protective effect | anti-cholestatic effect ([1]; Fxr^-/- mice): completely abolished; also recorded: no protective effect | anti-cholestatic effect ([1]; WT mice): superior anti-cholestatic effect; also recorded: significant effects | alleviation of ANIT-induced cholestatic liver injury ([1]; mice, AP 200 mg/kg p.o. alone (inhibitor study)): did not exhibit significant alleviation | alleviation of ANIT-induced cholestatic liver injury ([1]; mice, AP 200 mg/kg p.o. in combination with APS reductase inhibitor bromocriptine mesylate 20 mg/kg p.o.): notable amelioration of liver injury | anti-cholestatic effect vs ANIT group ([1]; mice, intraperitoneal AP 100 mg/kg or 200 mg/kg): superior anti-cholestatic effect | hepatoprotective effect vs ANIT group ([1]; mice, oral AP 400 mg/kg): significant efficacy | expression of APS reductase / growth of APS reductase-producing gut microbiota (gut microbiota): did not induce significant alterations | expression of Enterococcus, Lactobacillus, and Escherichia bacteria (gut microbiota): did not suppress
